Consider seven molecules from patent US7781465B2, “Therapeutic oxazolidinones and thiazolidinones” (Allergan, Inc., priority 2007, dated 2010).

Data set [1] deals with T1, EP2 (Homo sapiens, UniProt P43116). In words: EP2 flipr functional assay. Format: cell-based. An excerpt: (§1) U.S. Patent Application Publication No. 20070129552, incorporated by reference herein, describes the methods used to obtain the in vitro data in the table below.
In data set [2] the target is T1, EP2. In words: EP2 binding (Ki).
Text: as §1

The target of data set [3] is T2, EP4 (Homo sapiens, UniProt P35408). In words: EP4 binding (Ki).
T2 sequence (P35408 whole entry): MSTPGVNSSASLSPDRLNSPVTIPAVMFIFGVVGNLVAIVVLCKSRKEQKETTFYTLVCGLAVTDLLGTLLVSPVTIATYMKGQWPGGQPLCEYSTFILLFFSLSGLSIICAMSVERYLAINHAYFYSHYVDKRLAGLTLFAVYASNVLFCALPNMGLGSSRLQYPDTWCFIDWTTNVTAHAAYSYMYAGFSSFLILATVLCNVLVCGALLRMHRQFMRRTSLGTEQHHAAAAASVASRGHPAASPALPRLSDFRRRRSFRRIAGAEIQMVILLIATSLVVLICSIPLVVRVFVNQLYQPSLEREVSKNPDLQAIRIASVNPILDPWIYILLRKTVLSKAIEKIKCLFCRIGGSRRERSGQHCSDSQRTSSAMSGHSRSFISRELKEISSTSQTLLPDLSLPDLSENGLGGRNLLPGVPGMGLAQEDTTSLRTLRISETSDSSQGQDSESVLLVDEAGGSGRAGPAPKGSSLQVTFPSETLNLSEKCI
Text: as §1

The target in data set [4] is T3, hEP3A (Homo sapiens, UniProt P43115).
T3 sequence (P43115 1-390): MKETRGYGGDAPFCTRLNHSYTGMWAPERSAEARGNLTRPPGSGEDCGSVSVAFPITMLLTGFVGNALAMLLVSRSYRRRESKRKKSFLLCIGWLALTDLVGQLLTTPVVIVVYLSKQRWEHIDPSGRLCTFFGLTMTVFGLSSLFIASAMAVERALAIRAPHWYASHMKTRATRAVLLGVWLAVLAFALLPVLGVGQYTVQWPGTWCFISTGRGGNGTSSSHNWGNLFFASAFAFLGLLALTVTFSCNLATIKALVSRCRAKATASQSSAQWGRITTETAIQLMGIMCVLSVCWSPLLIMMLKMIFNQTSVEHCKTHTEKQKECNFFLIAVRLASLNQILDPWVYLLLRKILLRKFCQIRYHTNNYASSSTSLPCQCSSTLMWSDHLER
In words: Other receptors functional assay, hEP3A. The format is cell-based.
Text: as §1

Data set [5] addresses T4, hDP (Homo sapiens, UniProt Q13258).
T4 sequence (Q13258 1-359): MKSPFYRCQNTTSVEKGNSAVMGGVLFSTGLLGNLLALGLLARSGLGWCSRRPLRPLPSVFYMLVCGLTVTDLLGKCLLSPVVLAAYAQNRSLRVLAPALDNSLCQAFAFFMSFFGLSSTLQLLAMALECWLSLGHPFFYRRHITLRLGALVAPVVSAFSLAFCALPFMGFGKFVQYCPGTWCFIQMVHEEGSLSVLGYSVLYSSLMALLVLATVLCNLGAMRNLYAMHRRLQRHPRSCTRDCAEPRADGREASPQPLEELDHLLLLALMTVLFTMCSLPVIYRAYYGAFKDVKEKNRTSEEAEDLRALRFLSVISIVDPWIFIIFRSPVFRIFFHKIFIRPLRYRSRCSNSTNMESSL
In words: Other receptors functional assay, hDP. The format is cell-based.
Text: as §1

In data set [6] the target is T2, EP4. In words: EP4 flipr functional assay. Format: cell-based.
Text: as §1

Data set [7] relates to normotensive dogs. In words: Intraocular pressure in normotensive dogs. Format: in vivo, dog. Particulars: 0.003%, once daily for 5 days, at 54 h. The method, then:
(§2) U.S. Pat. No. 7,183,324 describes the methods used to obtain the in vitro results presented below.
(§3) Isopropyl 5-(3-((R)-3-(4-((S)-1-hydroxyhexyl)phenyl)-4-oxooxazolidin-2-yl)propyl)thiophene-2-carboxylate (12j) was tested in normotensive dogs at 0.003%, dosing once daily for 5 days. The maximum intraocular pressure (IOP) decrease from baseline was 5.4 mmHg (36%) at 54 h; the maximum ocular surface hyperemia (OSH) score was 1.75 at 50 h.

For data set [8], the system named is normotensive dogs. The data set can be described thus: Ocular surface hyperemia in normotensive dogs. The format is in vivo, dog. Particulars: 0.003%, once daily for 5 days, at 50 h. How it is done: as §2, §3

SMILES strings stand for the structures.

T1 sequence (P43116 whole entry): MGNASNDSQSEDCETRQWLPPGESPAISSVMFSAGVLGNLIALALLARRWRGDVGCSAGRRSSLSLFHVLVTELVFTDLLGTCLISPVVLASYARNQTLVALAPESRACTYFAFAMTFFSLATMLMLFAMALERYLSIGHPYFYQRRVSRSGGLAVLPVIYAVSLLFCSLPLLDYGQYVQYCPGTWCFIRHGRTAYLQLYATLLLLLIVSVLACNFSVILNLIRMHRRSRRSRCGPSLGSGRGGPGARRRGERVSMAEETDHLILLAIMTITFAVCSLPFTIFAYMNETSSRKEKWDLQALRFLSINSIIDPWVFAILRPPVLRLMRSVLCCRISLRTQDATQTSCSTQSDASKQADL

For `CCCCC[C@H](O)c1ccc(N2C(=O)CO[C@@H]2CCCc2ccc(C(=O)O)s2)cc1` (single isomer, unassigned) [Example 4], the half-maximal effective concentration (EC50) (usually the midpoint of the concentration-response curve) in data set [1] came to 1.2 nM; in data set [4], 4 nM; in data set [5], 73 nM. Besides, the figures for the inhibitory constant (Ki) in data set [2] and in data set [3] were 7 nM and above 10000 nM, respectively.

With `CCCCC[C@H](O)c1ccc(N2C(=O)CO[C@H]2CCCc2ccc(C(=O)O)s2)cc1` (single isomer, unassigned) [Example 3], the EC50 in data set [1] amounted to 82 nM; in data set [4] it was 268 nM; in data set [5], 1970 nM. Besides, the Ki (as a rule, the dissociation constant of the complex between target and ligand, obtained from inhibition or displacement) is 90 nM in data set [2] and above 10000 nM in data set [3].

For the molecule `O=C(O)c1ccc(CCCC2OCC(=O)N2c2ccccc2)s1` (stereo not drawn) [Example 9, 5-(3-(4-oxo-3-phenyloxazolidin-2-yl)propyl)thiophene-2-carboxylic acid], the EC50 is 3080 nM in data set [1] and above 10000 nM in data set [5]. Also, the inhibition constant (Ki) is 680 nM in data set [2] and above 10000 nM in data set [3].

For the molecule `CCCCCC(O)c1ccc(N2C(=O)COC2CCCc2ccc(C(=O)O)s2)cc1` (stereo not drawn) [Example 2, 5-(3-(3-(4-(1-hydroxyhexyl)phenyl)-4-oxo-oxazolidin-2-yl)propyl)thiophene-2-carboxylic acid], the EC50 came to 8 nM in data set [1], 11 nM in data set [4] and 213 nM in data set [5]. The results for the Ki in data set [2] and in data set [3] were 14 nM and above 10000 nM, respectively.

With `CCCCCCc1ccc(N2C(=O)COC2CCCc2ccc(C(=O)O)s2)cc1` (stereo not drawn) [Example 8, 5-(3-(3-(4-hexylphenyl)-4-oxooxazolidin-2-yl)propyl)thiophene-2-carboxylic acid], the concentration giving a half-maximal response (EC50) in data set [1] was determined as 37 nM; in data set [6] it was 12600 nM; in data set [4], 237 nM; in data set [5], 656 nM. Further, the inhibitory constant (Ki) in data set [2] is 3 nM; in data set [3], 2130 nM.

Take `CCCCC[C@H](O)c1ccc(N2C(=O)CO[C@@H]2CCCc2ccc(C(=O)OC(C)C)s2)cc1` [Example 12j, Isopropyl 5-(3-((R)-3-(4-((S)-1-hydroxyhexyl)phenyl)-4-oxooxazolidin-2-yl)propyl)thiophene-2-carboxylate]: in data set [7], the “maximum intraocular pressure (IOP) decrease from baseline” value was determined as 5.4 mmHg and the “maximum intraocular pressure (IOP) decrease from baseline, percent” value is recorded as 36%. For the same molecule, in data set [8], the “maximum ocular surface hyperemia (OSH) score” value is on record as 1.75.

With `CCCCCC(O)c1ccc(N2C(=O)CSC2CCCc2ccc(C(=O)O)s2)cc1` (stereo not drawn) [Example 1, 5-(3-(3-(4-(1-hydroxyhexyl)phenyl)-4-oxo-thiazolidin-2-yl)propyl)thiophene-2-carboxylic acid], the EC50 in data set [1] is 4400 nM; in data set [6] it was above 10000 nM; in data set [4], 8320 nM. Besides, the Ki in data set [2] was found to be 17500 nM; in data set [3], 1460 nM.
